# According to US20210087565A1, “ANTISENSE ANTIBIOTICS AND BACTERIAL SECRETION BASED DELIVERY SYSTEM TO ELIMINATE DRUG-RESISTANT BACTERIA” (priority 2018, published 2021):
# Values joined by “and” are separate entries in the source; they are usually repeats but may differ in a detail not shown here. Identical values can stand only once.
# Key:
# MDR E. coli = assay: PNA growth assay (optical density) on clinical isolate; assay type: cell-based, Escherichia coli
# Description: Bacterial Cell culture: The clinical isolates were obtained from the lab of Nancy Madinger at the University of Colorado Anschutz campus. Clinical isolates were grown in Cation Adjusted Mueller Hinton broth (CAMHB) (Becton, Dickinson and Company 212322) at 37° C. with 225 rpm shaking or on solid CAMHB with 1.5% agar at 37° C. Clinical isolates were maintained as freezer stocks in 90% CAMHB, 10% glycerol at −80° C. Freezer stocks were streaked out onto solid CAMHB and incubated for 16 h to produce single colonies prior to experiments. For each biological replicate, a single colony was picked from solid media and grown for 16 h in liquid CAMHB prior to experiments. Non-clinical isolates, such as E. coli MG1655 (ATCC700926) and Salmonella entorica serovar typhimurium SL1344, were cultured in liquid 2% lysogeny broth (LB) or on 2% LB with 1.5% agar for solid plates. S. typhimurium cultures were supplemented with 30 μg/mL streptomycin and SL1344 strains containing plasmids pFPV (SL1344-mCherry) or pRG1 modified with a lacIq promoter (SL1344-Holin) were supplemented with 100 μg/mL ampicillin. Freezer stocks were stored in 60% LB broth, 40% glycerol at −80° C. Freezer stocks were streaked out onto solid LB and incubated for 16 h to produce single colonies before experiments. For biological replicates, single colonies were started in liquid LB and grown for 16 hours prior to experiments. E. coli MG1655 PNA growth experiments were carried out in M9 media (1×M9 minimal media salts solution (MP Biomedicals), 2.0 mM MgSO4, and 0.1 mM CaCl2 in sterile water) with 0.4% glucose.
# PNA growth assay: Biological replicates were diluted 1:10,000 into treatment condition in 384-well plates and measured for 24 h in a Tecan GENios at 562 nm with a bandwidth of 35 nm. Media absorbance blanks were subtracted from data prior to analysis. Normalized optical density (OD) data is shown normalized to the time point where the “no treatment” growth curves reached saturation phase which varied across biological replicates.
# ESBL KPN = assay: Potentiation of antibiotics with PNAs (Bliss Independence); assay type: cell-based, Klebsiella pneumoniae; conditions: 10 μM PNA + 2 μg/mL tetracycline
# Description: Combinatorial effects were evaluated using the Bliss Independence model where the S parameter defines a deviation from no interaction as is defined as: […]
# Where ODAB is the OD at saturation time in only antibiotic, OD0 is the OD at saturation in no treatment, ODPNA is the OD at saturation in only antisense-PNA at 10 μM, and ODAB, PNA is the OD at saturation in a combination of antibiotic and antisense-PNA. Saturation time was determined as the time when the no treatment control reached its saturation growth phase. S>0 is a deviation towards synergy and S<0 is a deviation towards antagonism.
substance,measurement,setting,value
"α-rpsD: 12-mer antisense PNA AGAAAATGGCAA (SEQ ID NO. 19) targeting rpsD, conjugated to (KFF)3K cell penetrating peptide via AEEA-linker (all peptide nucleic acid (PNA); (KFF)3K cell-penetrating peptide attached via AEEA linker)",monotherapy effect (in words),MDR E. coli,effective in killing
same,growth inhibition,"MDR E. coli; 10 μM PNA, optical density vs no treatment at 16 hours",98±0.7% and 98%
"α-lexA: 12-mer antisense PNA cGGAATGAAAGC (SEQ ID NO. 17) targeting lexA, conjugated to (KFF)3K cell penetrating peptide via AEEA-linker (antisense CGGAATGAAAGC; all peptide nucleic acid (PNA); (KFF)3K cell-penetrating peptide attached via AEEA linker)",growth with combination therapy (in words),ESBL KPN,significant growth inhibition compared to each monotherapy
same,S-value (Bliss Independence model),ESBL KPN; S>0 indicates synergy,positive
